Results taken from ChEMBL document CHEMBL5518215, “Unlocking Antibacterial Potential: Key-Site-Based Regulation of Antibacterial Spectrum of Peptides” (J Med Chem, 2024).

Experiments:
[1] = system: Pseudomonas aeruginosa; assay: Antimicrobial activity against Pseudomonas aeruginosa 27853 assessed as bacterial killing measured after 16 hrs incubation; type: functional
[2] = system: Escherichia coli; assay: Antimicrobial activity against Escherichia coli 25922 assessed as absence bacterial growth measured after 18 to 24 hrs incubation in presence of ZnCl2 by NCCLS method; type: functional; conditions: time 18-24 hrs
[3] = system: Staphylococcus aureus; assay: Antimicrobial activity against Staphylococcus aureus 25923 assessed as bacterial killing measured after 16 hrs incubation; type: functional
[4] = system: Salmonella typhimurium; assay: Antimicrobial activity against Salmonella typhimurium 14028 assessed as bacterial killing measured after 16 hrs incubation; type: functional, Salmonella enterica subsp. enterica serovar Typhimurium; conditions: Salmonella enterica
[5] = system: Escherichia coli; assay: Antimicrobial activity against Escherichia coli 25922 assessed as absence bacterial growth measured after 18 to 24 hrs incubation in presence of 12.5% serum by NCCLS method; type: functional; conditions: time 18-24 hrs
[6] = system: Staphylococcus epidermidis; assay: Antimicrobial activity against Staphylococcus epidermidis 12228 assessed as bacterial killing measured after 16 hrs incubation; type: functional
[7] = system: Escherichia coli; assay: Antimicrobial activity against Escherichia coli 25922 assessed as absence bacterial growth measured after 18 to 24 hrs incubation by NCCLS method; type: functional; conditions: time 18-24 hrs
[8] = system: Staphylococcus aureus; assay: Antimicrobial activity against Staphylococcus aureus 29213 assessed as bacterial killing measured after 16 hrs incubation; type: functional
[9] = system: Enterococcus faecalis; assay: Antimicrobial activity against Enterococcus faecalis 29212 assessed as bacterial killing measured after 16 hrs incubation; type: functional
[10] = system: Acinetobacter baumannii; assay: Antimicrobial activity against Acinetobacter baumannii 1.6769 assessed as bacterial killing measured after 16 hrs incubation; type: functional
[11] = system: Escherichia coli; assay: Antimicrobial activity against Escherichia coli 25922 assessed as absence bacterial growth measured after 18 to 24 hrs incubation in presence of NaCl by NCCLS method; type: functional; conditions: time 18-24 hrs
[12] = Antimicrobial activity against Salmonella pullorum C7913 assessed as bacterial killing measured after 16 hrs incubation; type: functional, Salmonella enterica subsp. enterica serovar Pullorum; conditions: Salmonella enterica
[13] = Cytotoxicity against porcine IPEC-J2 cells assessed as cell survival rate measured after 8 hrs by MTT assay; type: toxicity, cell-based, Sus scrofa; conditions: pig
[14] = system: Staphylococcus aureus; assay: Antimicrobial activity against Methicillin-resistant Staphylococcus aureus 43300 assessed as absence bacterial growth measured after 18 to 24 hrs incubation by NCCLS method; type: functional; conditions: time 18-24 hrs
[15] = system: Bacillus cereus; assay: Antimicrobial activity against Bacillus cereus 1.932 assessed as absence bacterial growth measured after 18 to 24 hrs incubation by NCCLS method; type: functional; conditions: time 18-24 hrs
[16] = system: Escherichia coli; assay: Antimicrobial activity against Escherichia coli 25922 assessed as absence bacterial growth measured after 18 to 24 hrs incubation in presence of 50% serum by NCCLS method; type: functional; conditions: time 18-24 hrs
[17] = system: Staphylococcus epidermidis; assay: Antimicrobial activity against Staphylococcus epidermidis 12228 assessed as absence bacterial growth measured after 18 to 24 hrs incubation by NCCLS method; type: functional; conditions: time 18-24 hrs
[18] = system: Escherichia coli; assay: Antimicrobial activity against Escherichia coli 25922 assessed as absence bacterial growth measured after 18 to 24 hrs incubation in presence of KCl by NCCLS method; type: functional; conditions: time 18-24 hrs
[19] = system: Staphylococcus aureus; assay: Antimicrobial activity against Staphylococcus aureus 29213 assessed as absence bacterial growth measured after 18 to 24 hrs incubation by NCCLS method; type: functional; conditions: time 18-24 hrs
[20] = system: Salmonella typhimurium; assay: Antimicrobial activity against Salmonella typhimurium C7731 assessed as absence bacterial growth measured after 18 to 24 hrs incubation by NCCLS method; type: functional, Salmonella enterica subsp. enterica serovar Typhimurium; conditions: Salmonella enterica, time 18-24 hrs
[21] = system: Salmonella typhimurium; assay: Antimicrobial activity against Salmonella typhimurium 14028 assessed as absence bacterial growth measured after 18 to 24 hrs incubation by NCCLS method; type: functional, Salmonella enterica subsp. enterica serovar Typhimurium; conditions: Salmonella enterica, time 18-24 hrs
[22] = system: Listeria monocytogenes; assay: Antimicrobial activity against Listeria monocytogenes 1.10753 assessed as bacterial killing measured after 16 hrs incubation; type: functional
[23] = system: Acinetobacter baumannii; assay: Antimicrobial activity against Acinetobacter baumannii 1.6769 assessed as absence bacterial growth measured after 18 to 24 hrs incubation by NCCLS method; type: functional; conditions: time 18-24 hrs
[24] = system: Enterococcus faecalis; assay: Antimicrobial activity against Enterococcus faecalis 29212 assessed as absence bacterial growth measured after 18 to 24 hrs incubation by NCCLS method; type: functional; conditions: time 18-24 hrs
[25] = Antimicrobial activity against Salmonella pullorum C7913 assessed as absence bacterial growth measured after 18 to 24 hrs incubation by NCCLS method; type: functional, Salmonella enterica subsp. enterica serovar Pullorum; conditions: Salmonella enterica, time 18-24 hrs
[26] = system: Escherichia coli; assay: Antimicrobial activity against Escherichia coli 25922 assessed as absence bacterial growth measured after 18 to 24 hrs incubation in presence of NH4Cl by NCCLS method; type: functional; conditions: time 18-24 hrs
[27] = system: Erythrocyte; assay: Hemolytic activity in human RBC at effective concentration measured after 1 hr by microplate reader analysis; type: toxicity, cell-based
[28] = system: Pseudomonas aeruginosa; assay: Antimicrobial activity against Pseudomonas aeruginosa 27853 assessed as absence bacterial growth measured after 18 to 24 hrs incubation by NCCLS method; type: functional; conditions: time 18-24 hrs
[29] = system: Escherichia coli; assay: Antimicrobial activity against Escherichia coli K88 assessed as bacterial killing measured after 16 hrs incubation; type: functional
[30] = system: Staphylococcus aureus; assay: Antimicrobial activity against Staphylococcus aureus 29213 assessed as absence bacterial growth measured after 18 to 24 hrs incubation by NCCLS m; type: functional; conditions: time 18-24 hrs
[31] = system: Escherichia coli; assay: Antimicrobial activity against Escherichia coli K88 assessed as absence bacterial growth measured after 18 to 24 hrs incubation by NCCLS method; type: functional; conditions: time 18-24 hrs
[32] = system: Bacillus cereus; assay: Antimicrobial activity against Bacillus cereus 1.932 assessed as bacterial killing measured after 16 hrs incubation; type: functional
[33] = system: Escherichia coli; assay: Antimicrobial activity against Escherichia coli 25922 assessed as absence bacterial growth measured after 18 to 24 hrs incubation in presence of FeCl3 by NCCLS method; type: functional; conditions: time 18-24 hrs
[34] = system: Listeria monocytogenes; assay: Antimicrobial activity against Listeria monocytogenes 1.10753 assessed as absence bacterial growth measured after 18 to 24 hrs incubation by NCCLS method; type: functional; conditions: time 18-24 hrs
[35] = Cytotoxicity against human HEK-293T cells assessed as cell survival rate measured after 8 hrs by MTT assay; type: toxicity, cell-based
[36] = system: Escherichia coli; assay: Antimicrobial activity against Escherichia coli 25922 assessed as absence bacterial growth measured after 18 to 24 hrs incubation in presence of MgCl2 by NCCLS method; type: functional; conditions: time 18-24 hrs
[37] = system: Staphylococcus aureus; assay: Antimicrobial activity against Methicillin-resistant Staphylococcus aureus 43300 assessed as bacterial killing measured after 16 hrs incubation; type: functional
[38] = Cytotoxicity against mouse RAW264.7 cells assessed as cell survival rate measured after 8 hrs by MTT assay; type: toxicity, cell-based
[39] = system: Salmonella typhimurium; assay: Antimicrobial activity against Salmonella typhimurium C7731 assessed as bacterial killing measured after 16 hrs incubation; type: functional, Salmonella enterica subsp. enterica serovar Typhimurium; conditions: Salmonella enterica
[40] = system: Escherichia coli; assay: Antimicrobial activity against Escherichia coli 25922 assessed as absence bacterial growth measured after 18 to 24 hrs incubation in presence of 25% serum by NCCLS method; type: functional; conditions: time 18-24 hrs
[41] = system: Escherichia coli; assay: Antimicrobial activity against Escherichia coli 25922 assessed as bacterial killing measured after 16 hrs incubation; type: functional

H-GKLWLKGIKLWLKGGKLWLKG-NH2
18.9 µM: IC50 at 8 h [13]
16 µM: MIC [5]
33.5 µM: IC50 at 8 h [35]
1 µM: MBC [12] | MIC [25] | MBC [29] | MIC [31]
> 32 µM: MIC [16] | MBC [22] | MIC [34] | MIC [40]
2 µM: MIC [2] | MBC [4] | MIC [7] | MBC [10] | MIC [14] | MIC [15] | MIC [18] | MIC [21] | MIC [23] | MIC [26] | MBC [32] | MIC [33] | MBC [37] | MBC [41]
36.9 µM: IC50 at 8 h [38]
8 µM: MBC [1] | MBC [8] | MBC [9] | MIC [19] | MIC [20] | MIC [36] | MBC [39]
64 µM: HC10 [27]
4 µM: MBC [3] | MBC [6] | MIC [11] | MIC [17] | MIC [24] | MIC [28] | MIC [30]

H-GKLWLKGWKLWLKGGKLWLKG-NH2
4 µM: MBC [1] | MBC [4] | MBC [6] | MBC [8] | MBC [9] | MIC [30] | MBC [32] | MBC [37]
2 µM: MBC [10] | MIC [11] | MIC [14] | MIC [17] | MIC [19] | MIC [20] | MIC [21] | MIC [23] | MIC [24] | MIC [26] | MIC [28] | MIC [36]
16 µM: MIC [5]
61.9 µM: IC50 at 8 h [35]
8 µM: MBC [3] | MBC [39]
1 µM: MIC [2] | MIC [7] | MBC [12] | MIC [15] | MIC [18] | MIC [25] | MBC [29] | MIC [31] | MIC [33] | MBC [41]
32 µM: MIC [16] | HC10 [27] | MIC [40]
3.9 µM: IC50 at 8 h [13]
53.5 µM: IC50 at 8 h [38]
> 32 µM: MBC [22] | MIC [34]

H-GKLWLKGLKLWLKGGKLWLKG-NH2
32 µM: MBC [1]
32.7 µM: IC50 at 8 h [38]
1 µM: MBC [4] | MBC [12] | MIC [21] | MIC [25] | MBC [29] | MIC [31]
4 µM: MBC [6] | MBC [8] | MBC [9] | MIC [11] | MIC [15] | MIC [19] | MIC [20] | MIC [24] | MIC [28] | MIC [30] | MBC [32] | MIC [36]
> 32 µM: MIC [16] | MBC [22] | MIC [34] | MIC [40]
21.1 µM: IC50 at 8 h [13]
16 µM: MIC [5] | MBC [39]
64 µM: HC10 [27]
2 µM: MIC [2] | MIC [7] | MBC [10] | MIC [14] | MIC [17] | MIC [18] | MIC [23] | MIC [26] | MIC [33] | MBC [37] | MBC [41]
8 µM: MBC [3]
47.2 µM: IC50 at 8 h [35]

H-GKLWLKGMKLWLKGGKLWLKG-NH2
8 µM: MBC [1] | MBC [9] | MIC [11] | MIC [36] | MBC [39]
1 µM: MBC [10] | MBC [12] | MIC [15] | MIC [23] | MIC [25] | MBC [29] | MIC [31]
> 64 µM: IC50 at 8 h [35] | IC50 at 8 h [38]
4 µM: MBC [6] | MBC [8] | MIC [17] | MIC [19] | MIC [20] | MIC [24] | MIC [28] | MIC [30]
128 µM: HC10 [27]
16 µM: MBC [3]
32 µM: MIC [5]
2 µM: MIC [2] | MBC [4] | MIC [7] | MIC [14] | MIC [18] | MIC [21] | MIC [26] | MBC [32] | MIC [33] | MBC [37] | MBC [41]
> 32 µM: MIC [16] | MBC [22] | MIC [34] | MIC [40]
21 µM: IC50 at 8 h [13]
